Results: patent EP0369035A1, “AGENT FOR TREATING PANCREATITIS OR THE LIKE” (priority 1988, dated 1989)
pIC50: −log10 of the molar value. Read-outs that look alike come from different tables or passages of the source.

Key:
experimental shock = experiment: Effect on experimental shock (endotoxin-induced), survival ratio; format: in vivo, ICR-mice; details: dose of 30 mg/kg intraperitoneally 15 minutes before endotoxin 40 mg/kg, mouse
Experimental: [IV] Effect on experimental shock
ICR-mice, body weight of about 25 g, were starved overnight. The test substance was dissolved in an injective 5% glucose solution and intraperioneally administered, and 15 minutes later, endotoxin (E. coli 0127:B8, Difco, U.S.) dissolved in a physiological saline was intraperioneally administered to an amount of 40 mg/kg body weight.

human urokinase = human urokinase (Homo sapiens, UniProt P00749); experiment: Anti-urokinase activity: inhibition of S-2444 degradation; format: biochemical; details: substrate S-2444, 37°C, pH 8.8; read-out: Urokinase S-2444 (I50)
Experimental: 3) Assay of anti-urokinase activity Assay method of inhibition of S-2444 degradation
The test substance was dissolved in a 0.05 M Tris-HC1 (pH 8.8) buffer to make a total volume of 400 µl, and 50 µl of a 1 mM S-2444 solution was added to the mixture. After incubation at 37°C for 5 minutes in an incubator, an addition of 50 µl of 500 units/ml human urokinase solution, and incubation at 37°C for 5 minutes, the reaction was terminated by an addition of 50 µl of 50% acetic acid.

human plasma kallikrein = target: T1, human plasma kallikrein (Homo sapiens, UniProt P03952); experiment: Anti-plasma kallikrein activity: inhibition of S-2302 degradation; format: biochemical
T1 construct: 50 µl of 0.12 units/ml human plasma kallikrein solution
T1 sequence (P03952 391-638 limits assumed): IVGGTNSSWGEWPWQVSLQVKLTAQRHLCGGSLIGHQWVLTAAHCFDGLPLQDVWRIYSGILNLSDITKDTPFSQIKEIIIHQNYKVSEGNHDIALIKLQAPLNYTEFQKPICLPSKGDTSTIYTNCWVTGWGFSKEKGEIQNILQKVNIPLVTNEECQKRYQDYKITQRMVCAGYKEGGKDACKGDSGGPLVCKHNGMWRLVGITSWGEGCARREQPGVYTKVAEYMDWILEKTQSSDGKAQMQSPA
T1 sequence (P03952 20-390 partner limits assumed): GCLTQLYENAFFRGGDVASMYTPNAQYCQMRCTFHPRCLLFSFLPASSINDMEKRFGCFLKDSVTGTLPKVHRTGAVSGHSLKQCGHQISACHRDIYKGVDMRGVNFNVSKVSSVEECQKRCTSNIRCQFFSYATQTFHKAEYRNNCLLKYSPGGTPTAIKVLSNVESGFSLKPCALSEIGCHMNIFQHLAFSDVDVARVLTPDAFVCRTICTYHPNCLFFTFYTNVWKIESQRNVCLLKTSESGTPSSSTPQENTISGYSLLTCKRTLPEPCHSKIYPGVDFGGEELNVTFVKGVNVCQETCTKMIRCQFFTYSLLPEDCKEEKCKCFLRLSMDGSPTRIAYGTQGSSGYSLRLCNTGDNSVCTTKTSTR
Experimental: 2) Assay of anti-plasma kallikrein activity Assay method of inhibition of S-2302 degradation
The test substance was dissolved in a 0.05 M Tris-HC1 (pH 7.8) buffer to make a total volume of 400 µl, and 50 µl of a 2 mM S-2302 solution was added to the solution. After incubation at 37°C for 5 minutes in an incubator, an addition of 50 µl of 0.12 units/ml human plasma kallikrein solution, and incubation at 37°C for 5 minutes, the reaction was terminated by an addition of 50 µl of 50% acetic acid.

human plasmin [1] = target: T2, human plasmin (Homo sapiens, UniProt P00747); experiment: Anti-plasmin activity: inhibition of fibrinolysis (fibrin clot lysis time); format: biochemical
T2 construct: 50 µl of 0.2 casein units/ml of human plasmin
T2 sequence (P00747 581-810 limits assumed): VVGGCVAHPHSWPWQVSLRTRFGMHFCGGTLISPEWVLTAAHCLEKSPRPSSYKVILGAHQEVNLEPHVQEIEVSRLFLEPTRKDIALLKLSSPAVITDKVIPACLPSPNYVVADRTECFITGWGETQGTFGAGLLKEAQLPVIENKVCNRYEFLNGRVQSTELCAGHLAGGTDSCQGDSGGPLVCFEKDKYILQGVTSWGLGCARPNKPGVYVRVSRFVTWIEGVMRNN
T2 sequence (P00747 97-580 partner limits assumed): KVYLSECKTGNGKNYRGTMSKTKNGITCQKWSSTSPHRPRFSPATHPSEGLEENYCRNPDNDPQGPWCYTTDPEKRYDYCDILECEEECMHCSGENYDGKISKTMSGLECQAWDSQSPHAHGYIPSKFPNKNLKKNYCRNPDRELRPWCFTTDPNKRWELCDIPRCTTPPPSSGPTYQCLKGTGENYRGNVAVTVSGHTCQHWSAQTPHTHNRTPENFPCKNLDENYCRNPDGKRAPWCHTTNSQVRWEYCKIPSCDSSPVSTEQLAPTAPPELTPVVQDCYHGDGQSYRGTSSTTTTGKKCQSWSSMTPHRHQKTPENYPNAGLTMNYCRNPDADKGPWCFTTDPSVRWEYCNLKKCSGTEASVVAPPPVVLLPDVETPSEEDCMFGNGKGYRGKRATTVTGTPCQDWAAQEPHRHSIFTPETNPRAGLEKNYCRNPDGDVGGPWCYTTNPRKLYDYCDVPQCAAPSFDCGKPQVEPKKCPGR

bovine factor Xa = target: T3, bovine factor Xa (Bos taurus, UniProt P00743); experiment: Anti-FXa activity: inhibition of S-2222 degradation; format: biochemical
T3 construct: 0.05 ml of 0.3 vial/ml bovine factor Xa
T3 sequence (P00743 234-492 limits assumed): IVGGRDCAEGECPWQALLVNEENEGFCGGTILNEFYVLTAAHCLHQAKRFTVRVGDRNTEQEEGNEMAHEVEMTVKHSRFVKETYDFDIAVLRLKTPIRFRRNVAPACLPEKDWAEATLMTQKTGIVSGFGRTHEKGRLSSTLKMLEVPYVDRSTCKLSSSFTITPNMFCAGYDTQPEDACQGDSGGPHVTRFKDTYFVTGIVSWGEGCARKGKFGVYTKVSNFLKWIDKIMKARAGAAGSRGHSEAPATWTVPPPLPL
T3 sequence (P00743 41-180 partner limits assumed): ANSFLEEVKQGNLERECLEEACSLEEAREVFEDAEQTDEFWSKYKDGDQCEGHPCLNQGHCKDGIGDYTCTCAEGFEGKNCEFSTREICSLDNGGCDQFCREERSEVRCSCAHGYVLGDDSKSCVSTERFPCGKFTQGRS
Experimental: 4) Assay of anti-FXa activity Assay method of inhibition of S-2222 degradation
To 0.4 ml of the test substance dissolved in a 0.05 M Tris-HC1 (pH 8.3) buffer is added 0.05 ml of 3 mM S-2222 solution, and after incubation at 37°C for about 4 minutes, an addition of 0.05 ml of 0.3 vial/ml bovine factor Xa, and a reaction at 37°C for 4 minutes, the - reaction was terminated by adding 0.05 ml of 50% acetic acid.

in vivo = details: mouse, intravenous, ICR male mice, up-and-down method, read-out: Acute toxicity (LD50)
Experimental: ICR male mice 5 to 10 weeks old were used. The test substance was dissolved in a 5% dimethylsulfoxide aqueous solution, and the solution was intravenously administered in an amount of 0.1 to 0.2 ml/10 g body weight. An LD50 value was calculated by up-and-down method.

human plasmin [2] = target: T2, human plasmin; experiment: Anti-plasmin activity: inhibition of S-2251 degradation; format: biochemical
Experimental: ii) Assay method of inhibition of S-2251 degradation
The test substance was dissolved in a 0.05 M Tris-HC1 (pH7.4) buffer to make a total volume of 400 µl, and 50 µl of a 3 mM S-2251 solution was added to the solution. The mixture was incubated at 37°C for 5 minutes in an incubator, and after the addition of 50 µl of 0.2 casein units/ml of human plasmin, and incubation at 37°C for 4 minutes, the reaction was terminated by an addition of 50 µl of 50% acetic acid.

experimental DIC = experiment: Effect on experimental DIC and MOF (endotoxin-induced); format: in vivo, SD-rats; details: Dose 10 μg/kg/min infusion, rat, 4 hours after endotoxin 10 mg/kg
Experimental: [III] Effect on experimental DIC
SD-rats, body weight of about 200 g, were starved overnight. Sodium pentobarbital was intraperioneally administered to anesthetize a rat, and then a cannula was inserted to the femoral vein, and the test substance dissolved in an injective 5% glucose solution was continually infused. Then, 10 minutes from the start of the injection, endotoxin (E. coli 0127:B8, Difco, U.S.) dissolved in physiological saline was injected through the tail vein to an amount of 10 mg/kg body weight, and 4 hours from the administration of endotoxin, the abdomen was opened, blood was obtained from the abdominal aorta, and platelets (Plt), fibrinogen (Fbg), fibrin degradation product (FDP), glutamic oxaloacetic transamirase (GOT), creatinine phosphokinase (CPK), and blood urin nitrogen (BUN) were measured.

[3] = system: experimental pancreatitis; experiment: Effect on experimental pancreatitis (sodium taurochorate + trypsin into the common bile duct), survival ratio; format: in vivo, SD-rats; parameters: Effect on experimental pancreatitis (100 mg/kg p.o.) After 24 hours / Effect on experimental pancreatitis (100 mg/kg p.o.) After 48 hours / Effect of existing control drug on experimental pancreatitis After 24 hours: unit not given here; details: rat; for Effect on experimental pancreatitis Survival ratio(%) After 24 hours / Effect on experimental pancreatitis Survival ratio(%) After 48 hours: 80 μg/kg/min. x 80 min. continuous infusion; for Effect on experimental pancreatitis (100 mg/kg p.o.) After 24 hours / Effect on experimental pancreatitis (100 mg/kg p.o.) After 48 hours / Effect of existing control drug on experimental pancreatitis After 24 hours: survival ratio; for Effect on experimental pancreatitis (100 mg/kg p.o.) After 24 hours / Effect on experimental pancreatitis (100 mg/kg p.o.) After 48 hours: 100 mg/kg p.o. 30 minutes before pancreatitis
Description: [II] Effect on experimental pancreatitis
SD-rats, body weight of about 200 g were, starved overnight, and 10 to 24 animals were used in one group. Sodium pentobarbital was intraperioneally administered to anesthetize each rat, and then a cannula was inserted to the femoral vein for the administration of the test substance. After abdominal surgery, the bile duct was blocked at a part thereof proximate to the liver, by a clip, a polyethylene tube was inserted to the common bile duct at a part thereof most proximate to the duodenum, and 0.1 ml of solution containing 2 mg sodium taurochorate and 1000 U trypsin dissolved in physiological saline was injected retrogrodely. After removal of the clip and tube, the common bile duct was ligated and the abdomen was closed. Note, the test substance was dissolved in an injective 5% glucose solution, and in the case of a continuous infusion, the solution was administered over 80 minutes starting from 10 minutes before the generation of pancreatitis. In the case of oral administration, the test substance was administered through an oral catheter 30 minutes before the generation of pancreatitis. After 24 hours and 48 hours from the generation of pancreatitis, the survival ratio of the animals was calculated and compared with a control group.

[4] = Measurement of half life in blood; format: in vivo; details: rat, iv, administered to the tail vein, SD-rats, plasma, HPLC
Experimental: [VI] Measurement of half life in blood
SD-rats 6 to 7 weeks old were used. The test substance was dissolved in an injective 5% glucose solution and administered to the tail vein. After the administration, blood samples were periodically obtained from the great vein and placed into heparinized test tubes. Plasma was separated by centrifugation and the test substance was extracted with ethyl acetate. After removal of the solvent, the residue was dissolved in 200 µl of methanol, and analyzed by high performance liquid chromatography. From the change of the concentration of the test substance in blood with time, a half life thereof in blood was calculated.

[5] = substrate S-2302, 37°C, pH 7.8, read-out: Plasma kallikrein S-2302 (I50)
[6] = concentration giving a fibrin clot lysis time twice that of control, 37°C, pH7.4, read-out: Plasmin Fibrin (I50)
[7] = substrate S-2222, 37°C, pH 8.3, read-out: FXa S-2222 (I50)
[8] = substrate S-2251, 37°C, pH7.4, read-out: Plasmin S-2251 (I50)

Compound	Effect on experimental shock (Survival ratio (%) after 24 hours) (experimental shock)	pIC50 (human urokinase)	pIC50 (human plasma kallikrein; [5])	pIC50 (human plasmin [1]; [6])	pIC50 (bovine factor Xa; [7])	LD50 (in vivo)	pIC50 (human plasmin [2]; [8])	Effect on experimental pancreatitis Survival ratio(%) After 24 hours [3]	Effect on experimental pancreatitis Survival ratio(%) After 48 hours [3]	half-life [4]	further results
CC(=O)c1ccc(NC(=O)[C@H](Cc2ccccc2)NC(=O)[C@H]2CC[C@H](CN)CC2)cc1 [Compound 2]	50%	4.24	6.07	4.68	3.27	50 mg/kg	4.44				
CC(=O)c1ccc(NC(=O)[C@H](Cc2ccc(OCc3cccc(Cl)c3)cc2)NC(=O)[C@H]2CC[C@H](CN)CC2)cc1 [Compound 3]	67%	4.40	6.42	7.00	4.46	> 100 mg/kg	6.10				BUN (experimental DIC): 40 ± 5 mg/dL; FDP (experimental DIC): 8 to 64 µg/mL; Fbg (experimental DIC): 160 ± 13 mg/dL; GOT (experimental DIC): 133 ± 4 U/ml; Plat (experimental DIC): 78 ± 7 x 10^4/μl; CPK (experimental DIC; Table 5-1): 14 ± 2 U/1
NC[C@H]1CC[C@H](C(=O)N[C@@H](Cc2ccc(OCc3ccccc3)cc2)C(=O)Nc2cccnc2)CC1 [Compound 1]	82%	4.35	5.77	5.54		70 mg/kg	5.21	55.5%	29.1%	15.3 min	BUN (experimental DIC): 28 ± 3 mg/dL; FDP (experimental DIC): 16 to 32 µg/mL; Fbg (experimental DIC): 146 ± 7 mg/dL; GOT (experimental DIC): 299 ± 63 U/ml; Plat (experimental DIC): 65 ± 6 x 10^4/μl
NCC1CCC(C(=O)NC(Cc2ccc(OCc3ccccn3)cc2)C(=O)Nc2ccc(C(=O)O)cc2)CC1 (centres unmarked) [Compound 20]			5.85	4.49	3.15	> 100 mg/kg	4.19	58.3%	41.7%	14 min	Effect on experimental pancreatitis (100 mg/kg p.o.) After 24 hours [3]: 58.3; Effect on experimental pancreatitis (100 mg/kg p.o.) After 48 hours [3]: 41.7
NC[C@H]1CC[C@H](C(=O)N[C@@H](Cc2ccc(OCc3ccccc3)cc2)C(=O)Nc2ccc(CC(=O)O)cc2)CC1 [Compound 8]		3.59	5.52	5.04	3.54	> 100 mg/kg	4.60	58.3%	58.3%	10.6 min	Effect on experimental pancreatitis (100 mg/kg p.o.) After 24 hours [3]: 58.3; Effect on experimental pancreatitis (100 mg/kg p.o.) After 48 hours [3]: 33.3
NC[C@H]1CC[C@H](C(=O)N[C@@H](Cc2ccc(OCc3ccccc3)cc2)C(=O)Nc2ccncc2)CC1 [Compound 4]	82%	4.49	5.92	6.15	4.05	85 mg/kg	5.47				
CCOC(=O)c1ccc(OC(=O)CCCCCNC(=N)N)cc1 [FOY, gabexate mesilate, reference compound]		5.89				248 mg/kg					pIC50 (human plasma kallikrein): 5.89; pIC50 (human plasmin [1]): 5.52; pIC50 (bovine factor Xa): 4.37; Effect of existing control drug on experimental pancreatitis After 24 hours ([3]; 250 μg/kg/min x 80 min): 16.6; Effect of existing control drug on experimental pancreatitis After 24 hours ([3]; 1000 μg/kg/min x 80 min): 42.0; half-life ([4]; in vivo): 0.4 min; pIC50 (human plasmin [2]): 5.47
